Several values for one entry are separate records, joined by “and”; a condition that tells them apart may be missing. Equal values may be shown once. Inconclusive results and toxic doses are left out. Rule as the data show it: active = T/C of 150% or more; inactive = T/C below 125%.
Test system: L1210 leukemia ip in BDF1 mice, survival T/C
Assay: NCI In Vivo Anticancer Drug Screen. Data for tumor model L1210 Leukemia (intraperitoneal) in B6D2F1 (BDF1) mice
Settings: endpoint: mean survival time, higher = longer survival
Method in brief: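 Tumor cells were implanted, animals were treated, and survival was followed. The result divides the treated measurement by the vehicle-control measurement.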

Measured: T/C

COc1cc(/C=C/C(=O)O)cc(Br)c1O
inactive: dose: 100.0 mg/kg/injection, schedule: Q04DX003 (ip), vehicle: Klucel (hydroxypropylcellulose) (HPC) 104 % of control | dose: 200.0 mg/kg/injection, schedule: Q04DX003 (ip), vehicle: Klucel (hydroxypropylcellulose) (HPC) 101 % of control | dose: 400.0 mg/kg/injection, schedule: Q04DX003 (ip), vehicle: Klucel (hydroxypropylcellulose) (HPC) 103 % of control

BrCCOC1CCCCO1 (stereo not drawn)
inactive: dose: 25.0 mg/kg/injection, schedule: Q01DX005 (ip), vehicle: saline 105 % of control | dose: 50.0 mg/kg/injection, schedule: Q01DX005 (ip), vehicle: saline 117 % of control | dose: 100.0 mg/kg/injection, schedule: Q01DX005 (ip), vehicle: saline 107 % of control | dose: 200.0 mg/kg/injection, schedule: Q01DX005 (ip), vehicle: saline 105 % of control

CCC(C)C1(C)OC1C(=O)OC (stereo not drawn)
inactive: dose: 100.0 mg/kg/injection, schedule: Q01DX009 (ip), vehicle: saline with Tween-80 93 % of control | dose: 100.0 mg/kg/injection, schedule: Q04DX003 (ip), vehicle: saline with Tween-80 100 % of control | dose: 200.0 mg/kg/injection, schedule: Q01DX009 (ip), vehicle: saline with Tween-80 86 % of control | dose: 200.0 mg/kg/injection, schedule: Q04DX003 (ip), vehicle: saline with Tween-80 101 % of control | dose: 400.0 mg/kg/injection, schedule: Q04DX003 (ip), vehicle: saline with Tween-80 97 % of control

CC1N=C(c2ccc(N)cc2)OC1C (stereo not drawn)
inactive: dose: 100.0 mg/kg/injection, schedule: Q01DX001 (ip), vehicle: Klucel (hydroxypropylcellulose) (HPC) 102 % of control | dose: 200.0 mg/kg/injection, schedule: Q01DX001 (ip), vehicle: Klucel (hydroxypropylcellulose) (HPC) 98 % of control | dose: 400.0 mg/kg/injection, schedule: Q01DX001 (ip), vehicle: Klucel (hydroxypropylcellulose) (HPC) 100 % of control

CC1CCCC(Oc2nc3c(c(=O)n(C)c(=O)n3C)n2C)C1 (stereo not drawn)
inactive: dose: 50.0 mg/kg/injection, schedule: Q01DX001 (ip), vehicle: other 93 % of control | dose: 100.0 mg/kg/injection, schedule: Q01DX001 (ip), vehicle: other 93 % of control | dose: 200.0 mg/kg/injection, schedule: Q01DX001 (ip), vehicle: other 88 % of control | dose: 400.0 mg/kg/injection, schedule: Q01DX001 (ip), vehicle: other 95 % of control

CCCCCCCCC/C=N\N=C(N)N
inactive: dose: 15.0 mg/kg/injection, schedule: Q01DX Z (ip), vehicle: carboxymethylcellulose (CMC) 101 % of control | dose: 30.0 mg/kg/injection, schedule: Q01DX Z (ip), vehicle: carboxymethylcellulose (CMC) 108 % of control | dose: 60.0 mg/kg/injection, schedule: Q01DX Z (ip), vehicle: carboxymethylcellulose (CMC) 97 % of control | dose: 120.0 mg/kg/injection, schedule: Q01DX Z (ip), vehicle: carboxymethylcellulose (CMC) 103 % of control and 104 % of control | dose: 120.0 mg/kg/injection, schedule: Q01DX Z (oral), vehicle: carboxymethylcellulose (CMC) 104 % of control | dose: 240.0 mg/kg/injection, schedule: Q01DX Z (ip), vehicle: carboxymethylcellulose (CMC) 100 % of control | dose: 240.0 mg/kg/injection, schedule: Q01DX Z (oral), vehicle: carboxymethylcellulose (CMC) 104 % of control | dose: 480.0 mg/kg/injection, schedule: Q01DX Z (oral), vehicle: carboxymethylcellulose (CMC) 102 % of control | dose: 960.0 mg/kg/injection, schedule: Q01DX Z (oral), vehicle: carboxymethylcellulose (CMC) 104 % of control

Source: PubChem BioAssay AID248 (DTP/NCI, 2004)
